Experiment: Compound was evaluated for inhibitory effect against protein phosphatase I (PP-I)

| IC50 | Structure (SMILES) |
| --- | --- |
| 3 µM | CCCCCCCCCCCCCCCC(=O)OC[C@@H](O)[C@H]1OC(=O)[C@]2(CCC(OC(C)C)O2)C1=O (stereo partly drawn) [Hexadecanoic acid (R)-2-hydroxy-2-((5S,8R)-2-isopropoxy-6,9-dioxo-1,7-dioxa-spiro[4.4]non-8-yl)-ethyl ester] |
| 11 µM | CCCCCCCCCCCCCCCC(=O)OC[C@@H](O)[C@H]1OC(=O)[C@]2(O)CCC(O)O[C@]12OC (stereo partly drawn) [Hexadecanoic acid (R)-2-((4aS,7R,7aR)-2,4a-dihydroxy-7a-methoxy-5-oxo-hexahydro-furo[3,4-b]pyran-7-yl)-2-hydroxy-ethyl ester] |

Source: BindingDB's records for doi:10.1016/s0960-894x(00)00294-8 (Universität Göttingen, 2000)
